Test results reported in patent US10722501B2 (BAYER AKTIENGESELLSCHAFT, priority 2016, dated 2020).

The compounds below were run against T1, recombinant full-length human prolyl endopeptidase (PREP) (Homo sapiens, UniProt P48147) (assay: Biochemical human prolyl endopeptidase (PREP) assay with fluorescently labelled substrate). Conditions: substrate Z-Gly-Pro-AMC 50 μM, 32° C., 60 min; some as mean values from multiple independent determinations.
T1 construct: To recombinant full-length human prolyl endopeptidase (PREP, R&D-Systems, 4308-SE); purchased R&D-Systems 4308-SE
T1 sequence (P48147 1-710): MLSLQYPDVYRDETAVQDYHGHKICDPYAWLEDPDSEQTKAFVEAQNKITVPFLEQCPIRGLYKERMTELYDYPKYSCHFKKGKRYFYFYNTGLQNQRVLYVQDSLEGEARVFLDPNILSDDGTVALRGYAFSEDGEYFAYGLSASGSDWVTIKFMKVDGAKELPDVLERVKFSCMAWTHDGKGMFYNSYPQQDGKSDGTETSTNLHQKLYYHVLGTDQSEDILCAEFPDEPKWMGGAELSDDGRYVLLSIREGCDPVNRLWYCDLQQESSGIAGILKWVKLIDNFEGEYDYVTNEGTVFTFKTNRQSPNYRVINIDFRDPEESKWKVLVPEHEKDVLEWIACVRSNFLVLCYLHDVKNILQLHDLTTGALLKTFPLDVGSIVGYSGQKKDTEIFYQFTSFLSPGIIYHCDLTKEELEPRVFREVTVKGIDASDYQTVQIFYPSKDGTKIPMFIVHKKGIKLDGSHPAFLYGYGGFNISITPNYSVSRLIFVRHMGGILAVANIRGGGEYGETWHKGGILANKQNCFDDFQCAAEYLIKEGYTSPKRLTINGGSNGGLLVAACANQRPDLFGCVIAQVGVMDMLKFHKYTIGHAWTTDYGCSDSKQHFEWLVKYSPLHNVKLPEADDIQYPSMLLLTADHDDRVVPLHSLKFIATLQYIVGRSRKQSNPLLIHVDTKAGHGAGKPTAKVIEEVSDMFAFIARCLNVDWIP
In short: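 0.4 nM (final, example) recombinant PREP in pH 7.5 Tris buffer with EDTA, GSH, BSA and Brij-35; compounds at 1 nM to 30 μM. Reaction started with 50 μM Z-Gly-Pro-AMC and followed by fluorescence (ex 360/em 465 nm) at 32° C for 60 min. IC50 interpolated from percent activity based on initial slopes.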
In the case of `CCn1nc(C(F)(F)F)cc1Cn1nc2n(c1=O)[C@H](C(=O)N1CCC(F)(F)C1)CCC2` [Example 362, (5S)-5-[(3,3-Difluoropyrrolidin-1-yl)carbonyl]-2-{[1-ethyl-3-(trifluoromethyl)-1H-pyrazol-5-yl]methyl}-5,6,7,8-tetrahydro[1,2,4]triazolo[4,3-a]pyridin-3(2H)-one], the IC50 is reported as 1.35 nM. For `CCn1nc(C(F)(F)F)cc1Cn1nc2n(c1=O)[C@H](C(=O)N1CC(F)C1)CCC2` [Example 363, (5S)-2-{[1-Ethyl-3-(trifluoromethyl)-1H-pyrazol-5-yl]methyl}-5-[(3-fluoroazetidin-1-yl)carbonyl]-5,6,7,8-tetrahydro[1,2,4]triazolo[4,3-a]pyridin-3(2H)-one], the IC50 was 2.3 nM. In the case of `O=C([C@@H]1CCCc2nn(Cc3csc(C(F)(F)F)n3)c(=O)n21)N1CCC(F)(F)C1` [Example 364, (5S)-5-[(3,3-Difluoropyrrolidin-1-yl)carbonyl]-2-{[2-(trifluoromethyl)-1,3-thiazol-4-yl]methyl}-5,6,7,8-tetrahydro[1,2,4]triazolo[4,3-a]pyridin-3(2H)-one], the IC50 is reported as 29 nM. For `O=C([C@@H]1CCCc2nn(Cc3csc(C(F)(F)F)n3)c(=O)n21)N1CC[C@H](F)C1` [Example 365, (5S)-5-{[(3S)-3-Fluoropyrrolidin-1-yl]carbonyl}-2-{[2-(trifluoromethyl)-1,3-thiazol-4-yl]methyl}-5,6,7,8-tetrahydro[1,2,4]triazolo[4,3-a]pyridin-3(2H)-one], the IC50 was 2.3 nM. `O=C([C@@H]1CCCc2nn(Cc3csc(C(F)(F)F)n3)c(=O)n21)N1C[C@@H](F)[C@@H](F)C1` [Example 366, (5S)-5-{[(3R,4S)-3,4-Difluoropyrrolidin-1-yl]carbonyl}-2-{[2-(trifluoromethyl)-1,3-thiazol-4-yl]methyl}-5,6,7,8-tetrahydro[1,2,4]triazolo[4,3-a]pyridin-3(2H)-one] was tested, and the IC50 was 2.1 nM. `N#C[C@@H]1CCCN1C(=O)[C@@H]1CCCc2nn(Cc3csc(C(F)(F)F)n3)c(=O)n21` [Example 367, (2S)-1-{[(5S)-3-Oxo-2-{[2-(trifluoromethyl)-1,3-thiazol-4-yl]methyl}-2,3,5,6,7,8-hexahydro[1,2,4]triazolo[4,3-a]pyridin-5-yl]carbonyl}pyrrolidine-2-carbonitrile] gave an IC50 of 0.425 nM. Compound `O=C([C@@H]1CCCc2nn(Cc3cccc(C(F)(F)F)n3)c(=O)n21)N1CCC(F)(F)C1` [Example 368, (5S)-5-[(3,3-Difluoropyrrolidin-1-yl)carbonyl]-2-{[6-(trifluoromethyl)pyridin-2-yl]methyl}-5,6,7,8-tetrahydro[1,2,4]triazolo[4,3-a]pyridin-3(2H)-one] has an IC50 of 9 nM. `O=C([C@@H]1CCCc2nn(Cc3cccc(C(F)(F)F)n3)c(=O)n21)N1CC(F)C1` [Example 369, (5S)-5-[(3-Fluoroazetidin-1-yl)carbonyl]-2-{[6-(trifluoromethyl)pyridin-2-yl]methyl}-5,6,7,8-tetrahydro[1,2,4]triazolo[4,3-a]pyridin-3(2H)-one] showed an IC50 of 13 nM. Compound `O=C([C@@H]1CCCc2nn(Cc3cccc(C(F)(F)F)n3)c(=O)n21)N1CC[C@H](F)C1` [Example 370, (5S)-5-{[(3S)-3-Fluoropyrrolidin-1-yl]carbonyl}-2-{[6-(trifluoromethyl)pyridin-2-yl]methyl}-5,6,7,8-tetrahydro[1,2,4]triazolo[4,3-a]pyridin-3(2H)-one] has an IC50 of 1 nM. `O=C([C@@H]1CCCc2nn(Cc3cccc(C(F)(F)F)n3)c(=O)n21)N1C[C@@H](F)[C@@H](F)C1` [Example 371, (5S)-5-{[(3R,4S)-3,4-Difluoropyrrolidin-1-yl]carbonyl}-2-{[6-(trifluoromethyl)pyridin-2-yl]methyl}-5,6,7,8-tetrahydro[1,2,4]triazolo[4,3-a]pyridin-3(2H)-one] was tested, and the IC50 was 1.2 nM. `O=C([C@@H]1CCCc2nn(Cc3cc(C(F)(F)F)c(Cl)cn3)c(=O)n21)N1C[C@@H](F)[C@@H](F)C1` [Example 372, (5S)-2-{[5-Chloro-4-(trifluoromethyl)pyridin-2-yl]methyl}-5-{[(3R,4S)-3,4-difluoropyrrolidin-1-yl]carbonyl}-5,6,7,8-tetrahydro[1,2,4]triazolo[4,3-a]pyridin-3(2H)-one] was tested, and the IC50 was 1.3 nM. `O=C([C@@H]1CCCc2nn(Cc3cc(C(F)(F)F)c(Cl)cn3)c(=O)n21)N1CC(O)C1` [Example 373, (5S)-2-{[5-Chloro-4-(trifluoromethyl)pyridin-2-yl]methyl}-5-[(3-hydroxyazetidin-1-yl)carbonyl]-5,6,7,8-tetrahydro[1,2,4]triazolo[4,3-a]pyridin-3(2H)-one] was tested, and the IC50 was 135 nM. `O=C([C@@H]1CCCc2nn(Cc3cc(C(F)(F)F)c(Cl)cn3)c(=O)n21)N1CC[C@H](O)C1` [Example 374, (5S)-2-{[5-Chloro-4-(trifluoromethyl)pyridin-2-yl]methyl}-5-{[(3S)-3-hydroxypyrrolidin-1-yl]carbonyl}-5,6,7,8-tetrahydro[1,2,4]triazolo[4,3-a]pyridin-3(2H)-one] was tested, and the IC50 was 51.5 nM. `O=C([C@@H]1CCCc2nn(Cc3cc(C(F)(F)F)c(Cl)cn3)c(=O)n21)N1CC(F)C1` [Example 375, (5S)-2-{[5-Chloro-4-(trifluoromethyl)pyridin-2-yl]methyl}-5-[(3-fluoroazetidin-1-yl)carbonyl]-5,6,7,8-tetrahydro[1,2,4]triazolo[4,3-a]pyridin-3(2H)-one] showed an IC50 of 2.6 nM. `O=C([C@@H]1CCCc2nn(Cc3cc(C(F)(F)F)c(Cl)cn3)c(=O)n21)N1CC[C@H](F)C1` [Example 376, (5S)-2-{[5-Chloro-4-(trifluoromethyl)pyridin-2-yl]methyl}-5-{[(3S)-3-fluoropyrrolidin-1-yl]carbonyl}-5,6,7,8-tetrahydro[1,2,4]triazolo[4,3-a]pyridin-3(2H)-one] showed an IC50 of 0.41 nM. Compound `O=C([C@@H]1CCCc2nn(Cc3ccc(Cl)cn3)c(=O)n21)N1CCC(F)(F)C1` [Example 377, (5S)-2-[(5-Chloropyridin-2-yl)methyl]-5-[(3,3-difluoropyrrolidin-1-yl)carbonyl]-5,6,7,8-tetrahydro[1,2,4]triazolo[4,3-a]pyridin-3(2H)-one] has an IC50 of 6.86 nM. Compound `O=C([C@@H]1CCCc2nn(Cc3ccc(Cl)cn3)c(=O)n21)N1C[C@@H](F)[C@@H](F)C1` [Example 378, (5S)-2-[(5-Chloropyridin-2-yl)methyl]-5-{[(3R,4S)-3,4-difluoropyrrolidin-1-yl]carbonyl}-5,6,7,8-tetrahydro[1,2,4]triazolo[4,3-a]pyridin-3(2H)-one] has an IC50 of 2.6 nM. `O=C([C@@H]1CCCc2nn(Cc3ccc(Cl)cn3)c(=O)n21)N1CC(F)C1` [Example 379, (5S)-2-[(5-Chloropyridin-2-yl)methyl]-5-[(3-fluoroazetidin-1-yl)carbonyl]-5,6,7,8-tetrahydro[1,2,4]triazolo[4,3-a]pyridin-3(2H)-one] showed an IC50 of 2.5 nM. `COc1ccc(Cn2nc3n(c2=O)[C@H](C(=O)N2C[C@@H](F)[C@@H](F)C2)CCC3)nc1` [Example 380, (5S)-5-{[(3R,4S)-3,4-Difluoropyrrolidin-1-yl]carbonyl}-2-[(5-methoxypyridin-2-yl)methyl]-5,6,7,8-tetrahydro[1,2,4]triazolo[4,3-a]pyridin-3(2H)-one] showed an IC50 of 2.1 nM. With `COc1ccc(Cn2nc3n(c2=O)[C@H](C(=O)N2CCC(F)(F)C2)CCC3)nc1` [Example 381, (5S)-5-[(3,3-Difluoropyrrolidin-1-yl)carbonyl]-2-[(5-methoxypyridin-2-yl)methyl]-5,6,7,8-tetrahydro[1,2,4]triazolo[4,3-a]pyridin-3(2H)-one] the IC50 was 5.5 nM.
